# Test results as given in patent US5204329A, “Treatment of organ transplantation rejection” (Du Pont Merck Pharmaceutical Company, priority 1990, dated 1993).
# Values joined by “and” are separate entries in the source; they are usually repeats but may differ in a detail not shown here. Equal entries are not always repeated.
# Tests used:
# [1] = test system: contact sensitivity response to 2,4-dinitrofluorobenzene (DNFB); test: Contact Sensitivity Response to DNFB in Mice (ear swelling); type: in vivo, Balb/c female mice
# Method: Balb/c female mice ([…].20 g, Charles River) were sensitized on the shaved abdomen with 25 μl of 0.5% 2,4-dinitrofluorobenzene (DNFB, Eastman Kodak Co.) in a vehicle of 4:1 acetone:olive oil on days 0 and 1. Mice were ear challenged with 20 μl of 0.2% DNFB in a vehicle of 4:1 acetone:olive oil on day 5. An identical segment of the ear was measured immediately before challenge and 24 hours later with an engineer's micrometer. Ear swelling was expressed as the difference in ear thickness before and after challenge in units of 10^-4 inches±SEM. Percent suppression was calculated as: [formula] […] Control animals received only vehicle (0.25% Methocel®). Negative controls were not sensitized on days 0 and 1 but were ear challenged on day 5. Ten mice were used per group.
# Contact sensitivity to DNFB is a form of delayed-type hypersensitivity which has been extensively studied to gain an understanding of the regulation of immunologic processes (Claman et. al. (1980), Immunological Rev. 50:105-132). This reaction is mediated by T lymphocytes that become sensitized to antigen by proliferating and developing into mature effector cells (Claman et. al. (1980), Immunological Rev. 105-132). This cell-mediated immune response (T-cell mediated immunity) is central to many disease states such as organ transplantation rejection and graft versus host disease (Benacerraf and Unanue (1979), Textbook of Immunology, Williams & Wilkins Co.,; Eisen (1980), Immunology, An Introduction to Molecular and Cellular Principles of the Immune Responses, Harper & Row, Inc.; Loveland and McKenzie (1982), Inflammation, Basic Principles and Clinical Correlates, Raven Press). […]
# [2] = test system: dihydroorotate dehydrogenase; settings: consequent inhibition of pyrimidine nucleotide biosynthesis; Chen et al. (1986); cited from earlier work
# [3] = known immunosuppressive agents; listed as AZA; cited from earlier work
# [4] = Table 1, 0.4 mg/kg oral, days 0-6
# [5] = Table 1, 2.0 mg/kg oral, days 0-6
# [6] = Table 1, 10.0 mg/kg oral, days 0-6
# [7] = Table 1, 20.0 mg/kg oral, days 0-6
# [8] = Table 4, dosing only day 0 and 1, 20.0 mg/kg
compound,measurement,setting,value
"Cc1c(-c2ccc(-c3ccccc3F)cc2)nc2ccc(F)cc2c1C(=O)O [Example 28, 2-(2'-fluoro-1,1'-biphenyl-4-yl)-6-fluoro-3-methyl-4-quinoline carboxylic acid]",ED50,"[1]; Mus musculus, Table 1, agent alone, oral, days 0-6",0.95 mg/kg
same,% Suppression,[1]; [4],30.20%
same,"Ear Swelling (units ± SEM), increase in ear thickness from day 5 to day 6",[1]; [4],51.95 ± 2.33 10^-4 inches
same,% Suppression,[1]; [5],66.10%
same,"Ear Swelling (units ± SEM), increase in ear thickness from day 5 to day 6",[1]; [5],25.61 ± 3.39 10^-4 inches
same,% Suppression,[1]; [6],92.28%
same,"Ear Swelling (units ± SEM), increase in ear thickness from day 5 to day 6",[1]; [6],6.40 ± 1.09 10^-4 inches
same,% Suppression,[1]; [7],94.53%
same,"Ear Swelling (units ± SEM), increase in ear thickness from day 5 to day 6",[1]; [7],4.75 ± 1.20 10^-4 inches
same,Ex. 28 ED50,"[1]; Table 2, with cyclosporin A 6.3 mg/kg",1.0 mg/kg
same,Ex. 28 ED50,"[1]; Table 2, with cyclosporin A 12.5 mg/kg",0.8 mg/kg
same,Ex. 28 ED50,"[1]; Table 2, with cyclosporin A 25.0 mg/kg",0.7 mg/kg
same,Ex. 28 ED50,"[1]; Table 2, with cyclosporin A 30.0 mg/kg",0.4 mg/kg
same,Ex. 28 ED50,"[1]; Table 2, with cyclosporin A 50.0 mg/kg",0.4 mg/kg
same,Ex. 28 ED50,"[1]; Table 2, with cyclosporin A 70.0 mg/kg",< 0.3 mg/kg
same,Ex. 28 ED50,"[1]; Table 3, with azathioprine 6.3 mg/kg",1.3 mg/kg
same,Ex. 28 ED50,"[1]; Table 3, with azathioprine 12.5 mg/kg",0.8 mg/kg
same,Ex. 28 ED50,"[1]; Table 3, with azathioprine 25.0 mg/kg",0.7 mg/kg
same,Ex. 28 ED50,"[1]; Table 3, with azathioprine 50.0 mg/kg",< 0.1 mg/kg
same,Ex. 28 ED50,"[1]; Table 3, with azathioprine 100.0 mg/kg",< 0.1 mg/kg
same,% Suppression,[1]; [8],14.4%
same,ΔEar Swelling,[1]; [8],59.6 ± 2.5
same,Ex. 28 ED50,"[1]; Tables 2 and 3, cyclosporin A / azathioprine at 0 mg/kg",1.4 mg/kg
same,% Suppression of Ear Swelling,"[1]; agent alone, 0.1 mg/kg, days 0-6, listed as Ex. 28, 0.1 mg/kg",6.5 ± 2.9% and 6.5 ± 2.8%
same,% Suppression of Ear Swelling,"[1]; agent alone, 0.3 mg/kg, days 0-6",7.3 ± 2.4%
same,% Suppression of Ear Swelling,"[1]; agent alone, 1.0 mg/kg, days 0-6",31.4%
same,% Suppression of Ear Swelling,"[1]; agent alone, 1.0 mg/kg, days 0-6, listed as Ex. 28, 1 mg/kg",31.4 ± 3.3%
same,% Suppression of Ear Swelling,"[1]; agent alone, 3.0 mg/kg, days 0-6",91.9 ± 2.3%
same,% Suppression of Ear Swelling,"[1]; agent alone, 10.0 mg/kg, days 0-6",93.9 ± 2.4%
same,unique mechanism of action: inhibition of dihydroorotate dehydrogenase,[2],inhibition of dihydroorotate dehydrogenase
"Cn1cnc([N+](=O)[O-])c1Sc1ncnc2nc[nH]c12 [Azathioprine, reference compound]",Azathioprine ED50,"[1]; Table 3, Ex. 28 at 0 mg/kg",38.0 mg/kg
same,Azathioprine ED50,"[1]; Table 3, with Ex. 28 at 0.1 mg/kg",42.0 mg/kg
same,Azathioprine ED50,"[1]; Table 3, with Ex. 28 at 0.3 mg/kg",43.0 mg/kg
same,Azathioprine ED50,"[1]; Table 3, with Ex. 28 at 1.0 mg/kg",7.5 mg/kg
same,Azathioprine ED50,"[1]; Table 3, with Ex. 28 at 3.0 mg/kg",< 6.3 mg/kg
same,Azathioprine ED50,"[1]; Table 3, with Ex. 28 at 10.0 mg/kg",< 6.3 mg/kg
same,% Suppression of Ear Swelling,"[1]; agent alone, 6.3 mg/kg, days 0-6",2.5 ± 4.2%
same,% Suppression of Ear Swelling,"[1]; agent alone, 12.5 mg/kg, days 0-6",15.9 ± 3.3%
same,% Suppression of Ear Swelling,"[1]; agent alone, 12.5 mg/kg, days 0-6, listed as azathioprine",15.9%
same,% Suppression of Ear Swelling,"[1]; agent alone, 25.0 mg/kg, days 0-6",29.7 ± 4.1%
same,% Suppression of Ear Swelling,"[1]; agent alone, 50.0 mg/kg, days 0-6",72.1 ± 3.1%
same,% Suppression of Ear Swelling,"[1]; agent alone, 100.0 mg/kg, days 0-6",97.7 ± 1.6%
same,clinically observed toxicities / side effects,[3],nephrotoxicity and hepatoxicity
